Test results: patent publication US20160235727A1, “NOVEL PYRROLIDINE DERIVED BETA 3 ADRENERGIC RECEPTOR AGONISTS” (Merck Sharp & Dohme Corp., priority 2013, published 2016)
Where two headings read alike, the source gives them in different places.

Target: T1, human β3-AR (Homo sapiens, UniProt P13945)
T1 construct: expressed in transfected cells; host or cells: CHO (Chinese hamster ovary) cells, stably transfected
Assay: cAMP functional agonist assay (LANCE TR-FRET) in CHO cells expressing cloned human β3-AR
Type: cell-based
Details: for Human β3-AR Agonist Activity (%): percent maximum activation relative to isoproterenol; for Fold drop in potency vs. 2-chloropyridine analog: EC50 of comparative example divided by EC50 of corresponding 2-chloropyridine compound

[1] = CHO cells stably expressing cloned human β3-adrenoceptor, cAMP release, read-out: Human β3-AR Agonism EC50

T1 sequence (P13945 whole entry): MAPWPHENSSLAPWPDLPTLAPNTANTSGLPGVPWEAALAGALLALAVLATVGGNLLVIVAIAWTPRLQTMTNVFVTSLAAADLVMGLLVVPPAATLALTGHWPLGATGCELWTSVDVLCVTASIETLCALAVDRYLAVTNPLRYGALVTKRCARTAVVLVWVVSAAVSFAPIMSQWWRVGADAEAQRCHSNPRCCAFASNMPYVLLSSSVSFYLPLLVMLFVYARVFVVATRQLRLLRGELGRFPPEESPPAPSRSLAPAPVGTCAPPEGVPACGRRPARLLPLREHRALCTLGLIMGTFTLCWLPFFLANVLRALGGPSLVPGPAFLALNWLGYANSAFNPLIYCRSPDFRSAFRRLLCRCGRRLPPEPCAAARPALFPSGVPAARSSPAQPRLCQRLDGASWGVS

| Structure (SMILES) | EC50 [1] | Human β3-AR Agonist Activity (%) | Fold drop in potency vs. 2-chloropyridine analog | EC50 |
| --- | --- | --- | --- | --- |
| CN(Cc1nc2ccsc2c(=O)[nH]1)C(=O)c1ccc(C[C@@H]2CC[C@H]([C@H](O)c3ccc(Cl)nc3)N2)cc1 [Example 44-A, 4-(((2S,5R)-5-((R)-(6-chloropyridin-3-yl)(hydroxy)methyl)pyrrolidin-2-yl)methyl)-N-methyl-N-((4-oxo-3,4-dihydrothieno[3,2-d]pyrimidin-2-yl)methyl)benzamide] | 2 nM | 99% |  |  |
| CN(Cc1cnccn1)C(=O)c1ccc(C[C@@H]2CC[C@H]([C@H](O)c3ccc(Cl)nc3)N2)cc1 [Example 40-A, 4-(((2S,5R)-5-((R)-(6-chloropyridin-3-yl)(hydroxy)methyl)pyrrolidin-2-yl)methyl)-N-methyl-N-(pyrazin-2-ylmethyl)benzamide] | 12 nM | 111% |  |  |
| Cc1cc(C(Cc2ccccc2)N(C)C(=O)c2ccc(C[C@@H]3CC[C@H]([C@H](O)c4ccc(Cl)nc4)N3)cc2)[nH]n1 (stereo partly drawn) [Example 6-A, 4-(((2S,5R)-5-((R)-(6-chloropyridin-3-yl)(hydroxy)methyl)pyrrolidin-2-yl)methyl)-N-methyl-N-(1-(5-methyl-1H-pyrazol-3-yl)-2-phenylethyl)benzamide] | 3 nM | 93% |  |  |
| CC(c1cnccn1)N(C)C(=O)c1ccc(C[C@@H]2CC[C@H]([C@H](O)c3ccccc3)N2)cc1 (stereo partly drawn) [Example 41-B, 4-(((2S,5R)-5-((R)-hydroxy(phenyl)methyl)pyrrolidin-2-yl)methyl)-N-methyl-N-(1-(pyrazin-2-yl)ethyl)benzamide] | 16 nM | 109% | 9.1 fold |  |
| COC(=O)c1cncc(CN(C)C(=O)c2ccc(C[C@@H]3CC[C@H]([C@H](O)c4ccccc4)N3)cc2)c1 [Example 34-B, Methyl 5-((4-(((2S,5R)-5-((R)-hydroxy(phenyl)methyl)pyrrolidin-2-yl)methyl)-N-methylbenzamido)methyl)nicotinate] | 14 nM | 101% | 2.3 fold |  |
| CCN(Cc1cccnc1)C(=O)c1ccc(C[C@@H]2CC[C@H]([C@H](O)c3ccccc3)N2)cc1 [Example 22-B, N-ethyl-4-(((2S,5R)-5-((R)-hydroxy(phenyl)methyl)pyrrolidin-2-yl)methyl)-N-(pyridin-3-ylmethyl)benzamide] | 10 nM | 103% | 2.0 fold |  |
| CN(Cc1cccnc1)C(=O)c1ccc(C[C@@H]2CC[C@H]([C@H](O)c3ccccc3)N2)cc1 [Example 21-B, 4-(((2S,5R)-5-((R)-hydroxy(phenyl)methyl)pyrrolidin-2-yl)methyl)-N-methyl-N-(pyridin-3-ylmethyl)benzamide] | 41 nM | 86% | 9.7 fold |  |
| CN(Cc1cncc(C(C)(C)O)c1)C(=O)c1ccc(C[C@@H]2CC[C@H]([C@H](O)c3ccc(Cl)cc3)N2)cc1 [Example 32-G, 4-(((2S,5R)-5-((R)-(4-chlorophenyl)(hydroxy)methyl)pyrrolidin-2-yl)methyl)-N-((5-(2-hydroxypropan-2-yl)pyridin-3-yl)methyl)-N-methylbenzamide] | 16 nM | 98% | 1.2 fold |  |
| COC(C)CN(C)C(=O)c1ccc(C[C@@H]2CC[C@H]([C@H](O)c3ccccc3)N2)cc1 (mixture of isomers) [Example 2-B, 4-(((2S,5R)-5-((R)-hydroxy(phenyl)methyl)pyrrolidin-2-yl)methyl)-N-(2-methoxypropyl)-N-methylbenzamide] | 168 nM | 94% | 1.4 fold |  |
| CC(c1cccnc1)N(C)C(=O)c1ccc(C[C@@H]2CC[C@H]([C@H](O)c3ccc(Cl)nc3)N2)cc1 (stereo partly drawn) [Example 23-A, 4-(((2S,5R)-5-((R)-(6-chloropyridin-3-yl)(hydroxy)methyl)pyrrolidin-2-yl)methyl)-N-methyl-N-(1-(pyridin-3-yl)ethyl)benzamide] |  | 96% |  | 2 nM |
| CN(Cc1ccc(Cl)nc1)C(=O)c1ccc(C[C@@H]2CC[C@H]([C@H](O)c3ccccc3)N2)cc1 [Example 30-B, N-((6-chloropyridin-3-yl)methyl)-4-(((2S,5R)-5-((R)-hydroxy(phenyl)methyl)pyrrolidin-2-yl)methyl)-N-methylbenzamide] | 28 nM | 100% | 8.9 fold |  |
| CC(O)c1cncc(CN(C)C(=O)c2ccc(C[C@@H]3CC[C@H]([C@H](O)c4ccc(Cl)nc4)N3)cc2)c1 (stereo partly drawn) [Example 31-A, (((2S,5R)-5-((R)-(6-chloropyridin-3-yl)(hydroxy)methyl)pyrrolidin-2-yl)methyl)-N-((5-(1-hydroxyethyl)pyridin-3-yl)methyl)-N-methylbenzamide] | 7 nM | 96% |  |  |
| CC(C)c1cc(CN(C)C(=O)c2ccc(C[C@@H]3CC[C@H]([C@H](O)c4ccc(Cl)nc4)N3)cc2)n[nH]1 [Example 7-A, 4-(((2S,5R)-5-((R)-(6-chloropyridin-3-yl)(hydroxy)methyl)pyrrolidin-2-yl)methyl)-N-((5-isopropyl-1H-pyrazol-3-yl)methyl)-N-methylbenzamide] | 59 nM | 95% |  |  |
| CN(Cc1cccnc1)C(=O)c1ccc(C[C@@H]2CC[C@H]([C@H](O)c3cccc(F)c3)N2)cc1 [Example 21-C, 4-(((2S,5R)-5-((R)-(3-fluorophenyl)(hydroxy)methyl)pyrrolidin-2-yl)methyl)-N-methyl-N-(pyridin-3-ylmethyl)benzamide] | 10 nM | 100% | 2.3 fold |  |
| CN(Cc1n[nH]c2c1CCC2)C(=O)c1ccc(C[C@@H]2CC[C@H]([C@H](O)c3ccc(Cl)nc3)N2)cc1 [Example 13-A, 4-(((2S,5R)-5-((R)-(6-chloropyridin-3-yl)(hydroxy)methyl)pyrrolidin-2-yl)methyl)-N-methyl-N-((1,4,5,6-tetrahydrocyclopenta[c]pyrazol-3-yl)methyl)benzamide] | 2 nM | 99% |  |  |
| Cc1cc(CN(C)C(=O)c2ccc(C[C@@H]3CC[C@H]([C@H](O)c4ccc(Cl)cc4)N3)cc2)n[nH]1 [Example 4-G, 4-(((2S,5R)-5-((R)-(4-chlorophenyl)(hydroxy)methyl)pyrrolidin-2-yl)methyl)-N-methyl-N-((5-methyl-1H-pyrazol-3-yl)methyl)benzamide] | 4 nM | 95% | 0.8 fold |  |
| CN(Cc1cccnc1)C(=O)c1ccc(C[C@@H]2CC[C@H]([C@H](O)c3ccc(F)cc3)N2)cc1 [Example 21-F, 4-(((2S,5R)-5-((R)-(4-fluorophenyl)(hydroxy)methyl)pyrrolidin-2-yl)methyl)-N-methyl-N-(pyridin-3-ylmethyl)benzamide] | 12 nM | 94% | 2.9 fold |  |
| CN(Cc1cncc(C(=O)O)c1)C(=O)c1ccc(C[C@@H]2CC[C@H]([C@H](O)c3ccccc3)N2)cc1 [Example 33-B, 5-((4-(((2S,5R)-5-((R)-hydroxy(phenyl)methyl)pyrrolidin-2-yl)methyl)-N-methylbenzamido)methyl)nicotinic acid] | 87 nM | 111% | 87.0 fold |  |
| CN(Cc1ccc(=O)[nH]c1)C(=O)c1ccc(C[C@@H]2CC[C@H]([C@H](O)c3ccc(Cl)nc3)N2)cc1 [Example 28-A, 4-(((2S,5R)-5-((R)-(6-chloropyridin-3-yl)(hydroxy)methyl)pyrrolidin-2-yl)methyl)-N-methyl-N-((6-oxo-1,6-dihydropyridin-3-yl)methyl)benzamide] | 175 nM | 87% |  |  |
| Cc1nnc2ccc(CN(C)C(=O)c3ccc(C[C@@H]4CC[C@H]([C@H](O)c5ccc(Cl)nc5)N4)cc3)cn12 [Example 43-A, 4-(((2S,5R)-5-((R)-(6-chloropyridin-3-yl)(hydroxy)methyl)pyrrolidin-2-yl)methyl)-N-methyl-N-((3-methyl-[1,2,4]triazolo[4,3-a]pyridin-6-yl)methyl)benzamide] | > 10000 nM | 45% |  |  |
| CN(Cc1cnccn1)C(=O)c1ccc(C[C@@H]2CC[C@H]([C@H](O)c3ccc(Cl)cc3)N2)cc1 [Example 40-G, 4-(((2S,5R)-5-((R)-(4-chlorophenyl)(hydroxy)methyl)pyrrolidin-2-yl)methyl)-N-methyl-N-(pyrazin-2-ylmethyl)benzamide] | 19 nM | 100% | 1.6 fold |  |
| CN(Cc1nc2ccsc2c(=O)[nH]1)C(=O)c1ccc(C[C@@H]2CC[C@H]([C@H](O)c3ccccc3)N2)cc1 [Example 44-B, 4-(((2S,5R)-5-((R)-hydroxy(phenyl)methyl)pyrrolidin-2-yl)methyl)-N-methyl-N-((4-oxo-3,4-dihydrothieno[3,2-d]pyrimidin-2-yl)methyl)benzamide] | 4 nM | 97% | 1.7 fold |  |
| CN(Cc1cccnc1)C(=O)c1ccc(C[C@@H]2CC[C@H]([C@H](O)c3cncc(F)c3)N2)cc1 [Example 21-R, 4-(((2S,5R)-5-((R)-(5-fluoropyridin-3-yl)(hydroxy)methyl)pyrrolidin-2-yl)methyl)-N-methyl-N-(pyridin-3-ylmethyl)benzamide] | 57 nM | 91% | 13.3 fold |  |
| COC(CN(C)C(=O)c1ccc(C[C@@H]2CC[C@H]([C@H](O)c3ccccc3)N2)cc1)c1cccc(=O)[nH]1 (stereo partly drawn) [Example 3-B, 4-(((2S,5R)-5-((R)-hydroxy(phenyl)methyl)pyrrolidin-2-yl)methyl)-N-(2-methoxy-2-(6-oxo-1,6-dihydropyridin-2-yl)ethyl)-N-methylbenzamide] | 410 nM | 101% | 2.0 fold |  |
